This note sets out measurements from patent US8609669B2, “Potassium channel modulators” (AbbVie Inc., priority 2010, dated 2013).

Some results are limits rather than exact numbers.

In the experiment the target is T1, KCNQ 2/3 channels (HEK293 cells stably expressing human KCNQ2 and KCNQ3 subunits) (Homo sapiens, UniProt O43525+O43526).
T1 construct: expressed in transfected cells; host or cells: HEK293
The experiment in a line: KCNQ2/3 channel activation, thallium flux FLIPR assay (BTC-AM dye). In kind it is cell-based. The settings on record: for Emax: HEK293, maximum response relative to response of retigabine at 10 μM (set at 100%), read-out: Max. %; for EC50: HEK293 cells expressing human KCNQ2 and KCNQ3, FLIPR thallium flux. On the procedure:
The following example describes the assay that can be used to identify compounds that activate KCNQ 2/3 channels.
HEK293 cells stably expressing human KCNQ2 and KCNQ3 subunits were seeded in 96-well, black-walled, clear-bottomed, poly-D-lysine coated plates (BD Biosciences, Bedford, Mass.) at a density of 1×10^5 cells per well 24 hours before the assay. On the assay day, BTC-AM dye (Invitrogen, Carlsbad, Calif.) was loaded into the cells by replacing the cell culture medium with 100 μL/well of 4 μM dye in DPBS. Dye loading was allowed to proceed for 2 hours at room temperature and then cells were washed twice in 100 μL/well of assay buffer (in mM: 10 HEPES pH 7.3, 5 glucose, 140 Na-gluconate, 2.5 K-gluconate, 3.6 Ca-gluconate, 2 MgSO4, 0.1 Ouabain) to remove unloaded dye. Cells were incubated in 50 μL of assay buffer before loading onto a FLIPR system (Molecular Devices, Sunnyvale, Calif.). Various concentrations of compounds to be assayed were added to the cells in 50 μL of assay buffer and incubated for 4 minutes. The fluorescence signal was initiated by adding 100 μL of assay buffer containing 6 mM TlNO3 and 10 mM K2SO4. Fluors were excited using the 488-nm line of an argon laser and emission was filtered using a 540±30 nm bandpass filter. Fluorescent signals were recorded for 3 minutes. Responses over baseline values were plotted versus concentrations of test compounds to obtain an EC50 value. The maximum response for each test compound was determined relative to the response produced at 10 μM by retigabine. The maximum response of retigabine at 10 μM was set at 100%.

As a reminder, the EC50 is the concentration giving half of the maximal effect. Low readings indicate higher potency in that assay, high ones lower potency in that assay. For `Cc1cnc2c(C(C)(C)C)c(NC(=O)CC3CCCCC3)nn2c1` [Example 180, N-(3-tert-butyl-6-methylpyrazolo[1,5-a]pyrimidin-2-yl)-2-cyclohexylacetamide], the Emax came to 155% and the EC50 was in the range of 100 to 500 nM.

On to `CC(C)(C)CC(=O)Nc1nn2cccnc2c1/C=C/c1ccc(Cl)cc1` [Example 111, N-{3-[(E)-2-(4-chlorophenyl)vinyl]pyrazolo[1,5-a]pyrimidin-2-yl}-3,3-dimethylbutanamide], for which the Emax was 59% and the EC50 was more than 10000 nM.

With `CC(C)c1c(NC(=O)CC(C)(C)C)nn2cccnc12` [Example 113, N-(3-isopropylpyrazolo[1,5-a]pyrimidin-2-yl)-3,3-dimethylbutanamide], the Emax is 18% and the EC50 was 100 to 500 nM.

Take `CC(C)(C)c1c(NC(=O)CCc2ccccc2)nn2cccnc12` [Example 129, N-(3-tert-butylpyrazolo[1,5-a]pyrimidin-2-yl)-3-phenylpropanamide]: the Emax amounted to 160% and the EC50 was 100 to 500 nM.

As for `Cc1ccnc2c(-c3cccc(C(F)(F)F)c3)c(NC(=O)Cc3ccc(F)cc3)nn12` [Example 67, 2-(4-fluorophenyl)-N-{7-methyl-3-[3-(trifluoromethyl)phenyl]pyrazolo[1,5-a]pyrimidin-2-yl}acetamide], the Emax is 117% and the EC50 is 100 to 500 nM.

In the case of `Cc1cnc2c(-c3cccc(F)c3)c(NC(=O)CC3CCCC3)nn2c1` [Example 83, 2-cyclopentyl-N-[3-(3-fluorophenyl)-6-methylpyrazolo[1,5-a]pyrimidin-2-yl]acetamide], the Emax was determined as 139% and the EC50 was in the range of 100 to 500 nM.

As for `CC(C)(C)c1c(NC(=O)CCC2CCCC2)nn2cccnc12` [Example 105, N-(3-tert-butylpyrazolo[1,5-a]pyrimidin-2-yl)-3-cyclopentylpropanamide], the Emax was 153% and the EC50 fell in the range of 100 to 500 nM.

Consider `COc1ccc(CC(=O)Nc2nn3c(C)ccnc3c2CC(C)(C)C)cc1` [Example 36, N-[3-(2,2-dimethylpropyl)-7-methylpyrazolo[1,5-a]pyrimidin-2-yl]-2-(4-methoxyphenyl)acetamide], for which the Emax stood at 160% and the EC50 is more than 10000 nM.

As for `COc1cc(CC(=O)Nc2nn3cccnc3c2-c2ccc(Cl)cc2)cc(OC)c1` [Example 109, N-[3-(4-chlorophenyl)pyrazolo[1,5-a]pyrimidin-2-yl]-2-(3,5-dimethoxyphenyl)acetamide], the Emax amounted to 8% and the EC50 is more than 10000 nM.

For `CC(C)(C)c1c(NC(=O)CC2CCC3C2C3(Cl)Cl)nn2cccnc12` (stereo not drawn) [Example 169, N-(3-tert-butylpyrazolo[1,5-a]pyrimidin-2-yl)-2-[(cis)-6,6-dichlorobicyclo[3.1.0]hex-2-yl]acetamide], the Emax was 134% and the EC50 was in the range of 100 to 500 nM.

Turning to `CC(C)c1c(NC(=O)CCC2CC2)nn2cccnc12` [Example 118, 3-cyclopropyl-N-(3-isopropylpyrazolo[1,5-a]pyrimidin-2-yl)propanamide], the Emax worked out at 14% and the EC50 is more than 10000 nM.

In the case of `Cc1cnc2c(CC(C)(C)C)c(NC(=O)CCC3CCCCC3)nn2c1` [Example 17, 3-cyclohexyl-N-[3-(2,2-dimethylpropyl)-6-methylpyrazolo[1,5-a]pyrimidin-2-yl]propanamide], the Emax was 267% and the EC50 is less than 100 nM.

Consider `Cc1cc(-c2c(NC(=O)CCC3CCCC3)nn3c(C)ccnc23)ccc1Cl` [Example 46, N-[3-(4-chloro-3-methylphenyl)-7-methylpyrazolo[1,5-a]pyrimidin-2-yl]-3-cyclopentylpropanamide], for which the Emax turned out to be 117% and the EC50 lay in the range of 100 to 500 nM.

As to `Cc1cnc2c(-c3ccc(F)c(C)c3)c(NC(=O)C(C)c3ccccc3)nn2c1` (racemic) [Example 176, (±)-N-[3-(4-fluoro-3-methylphenyl)-6-methylpyrazolo[1,5-a]pyrimidin-2-yl]-2-phenylpropanamide], the Emax stood at 83% and the EC50 fell in the range of 100 to 500 nM.

Consider `CC(C)(C)CC(=O)Nc1nn2cccnc2c1/C=C/c1ccc(C(F)(F)F)cc1` [Example 147, 3,3-dimethyl-N-(3-{(E)-2-[4-(trifluoromethyl)phenyl]vinyl}pyrazolo[1,5-a]pyrimidin-2-yl)butanamide], for which the Emax was found to be 65% and the EC50 was 1000 to 10000 nM.

Regarding `Cc1ccnc2c(-c3ccc(Cl)cc3)c(NC(=O)CC(C)(C)C)nn12` [Example 40, N-[3-(4-chlorophenyl)-7-methylpyrazolo[1,5-a]pyrimidin-2-yl]-3,3-dimethylbutanamide], the Emax amounted to 139% and the EC50 was 1000 to 10000 nM.

As to `CC(C)(C)CC(=O)Nc1nn2cccnc2c1C(C)(C)C` [Example 106, N-(3-tert-butylpyrazolo[1,5-a]pyrimidin-2-yl)-3,3-dimethylbutanamide], the Emax came out at 67% and the EC50 lay in the range of 1000 to 10000 nM.

For the compound `O=C(Cc1ccccn1)Nc1nn2cccnc2c1-c1ccc(Cl)cc1` [Example 100, N-[3-(4-chlorophenyl)pyrazolo[1,5-a]pyrimidin-2-yl]-2-(pyridin-2-yl)acetamide], the Emax is -1% and the 50% effective concentration (EC50) is more than 10000 nM.

As to `O=C(CCC1CCCC1)Nc1nn2cccnc2c1/C=C/c1ccc(C(F)(F)F)cc1` [Example 153, 3-cyclopentyl-N-(3-{(E)-2-[4-(trifluoromethyl)phenyl]vinyl}pyrazolo[1,5-a]pyrimidin-2-yl)propanamide], the Emax came out at 50% and the EC50 is more than 10000 nM.

For the compound `CC(C)(C)Cc1c(NC(=O)CCC2CCCCC2)nn2cccnc12` [Example 11, 3-cyclohexyl-N-[3-(2,2-dimethylpropyl)pyrazolo[1,5-a]pyrimidin-2-yl]propanamide], the Emax turned out to be 194% and the EC50 was less than 100 nM.

`Cc1ccnc2c(CC(C)(C)C)c(NC(=O)CCC3CCCCC3)nn12` [Example 37, 3-cyclohexyl-N-[3-(2,2-dimethylpropyl)-7-methylpyrazolo[1,5-a]pyrimidin-2-yl]propanamide]: the Emax was 166% and the EC50 was less than 100 nM.

For `CC(C)(C)c1c(NC(=O)Cc2ccc(F)cc2)nn2cccnc12` [Example 123, N-(3-tert-butylpyrazolo[1,5-a]pyrimidin-2-yl)-2-(4-fluorophenyl)acetamide], the Emax worked out at 142% and the EC50 lay in the range of 100 to 500 nM.

As for `Cc1cnc2c(C(C)(C)C)c(NC(=O)CCC3CCCC3)nn2c1` [Example 179, N-(3-tert-butyl-6-methylpyrazolo[1,5-a]pyrimidin-2-yl)-3-cyclopentylpropanamide], the Emax is 151% and the EC50 is less than 100 nM.

Take `CC(C)(C)/C=C/c1c(NC(=O)Cc2ccc(F)cc2)nn2cccnc12` [Example 161, N-{3-[(1E)-3,3-dimethylbut-1-en-1-yl]pyrazolo[1,5-a]pyrimidin-2-yl}-2-(4-fluorophenyl)acetamide]: the Emax worked out at 107% and the EC50 fell in the range of 100 to 500 nM.

Turning to `Cc1cnc2c(-c3cccc(Cl)c3)c(NC(=O)CC(C)(C)C)nn2c1` [Example 51, N-[3-(3-chlorophenyl)-6-methylpyrazolo[1,5-a]pyrimidin-2-yl]-3,3-dimethylbutanamide], the Emax was 73% and the EC50 is 1000 to 10000 nM.

As for `Cc1cnc2c(-c3ccc(C)c(F)c3)c(NC(=O)CCC3CCCC3)nn2c1` [Example 20, 3-cyclopentyl-N-[3-(3-fluoro-4-methylphenyl)-6-methylpyrazolo[1,5-a]pyrimidin-2-yl]propanamide], the Emax stood at 120% and the EC50 was less than 100 nM.

For `CC(C)c1c(NC(=O)CCC2CCCC2)nn2cccnc12` [Example 112, 3-cyclopentyl-N-(3-isopropylpyrazolo[1,5-a]pyrimidin-2-yl)propanamide], the Emax was found to be 135% and the concentration giving a half-maximal response (EC50) was in the range of 500 to 1000 nM.

For the compound `O=C(CCC1CCCC1)Nc1nn2cccnc2c1-c1cccnc1` [Example 119, 3-cyclopentyl-N-[3-(pyridin-3-yl)pyrazolo[1,5-a]pyrimidin-2-yl]propanamide], the Emax worked out at 52% and the EC50 lay in the range of 1000 to 10000 nM.

For the compound `Cc1cc(C)n2nc(NC(=O)CCC3CCCC3)c(-c3ccc(C(F)(F)F)cc3)c2n1` [Example 61, 3-cyclopentyl-N-{5,7-dimethyl-3-[4-(trifluoromethyl)phenyl]pyrazolo[1,5-a]pyrimidin-2-yl}propanamide], the Emax was 152% and the EC50 is 100 to 500 nM.

In the case of `CC(C)(C)CC(=O)Nc1nn2cccnc2c1C#Cc1ccc(OC(F)(F)F)cc1` [Example 156, 3,3-dimethyl-N-(3-{[4-(trifluoromethoxy)phenyl]ethynyl}pyrazolo[1,5-a]pyrimidin-2-yl)butanamide], the Emax came out at 40% and the EC50 was in the range of 1000 to 10000 nM.
